This is an account of results in patent publication US6001829A, “Fluoropropenyl oxadiazoles and the use thereof as pest control agents” (Bayer Aktiengesellschaft, priority 1995, dated 1999).

As a reminder, the chromatographic logP is lipophilicity estimated from chromatographic retention. By inhibition is commonly meant the drop in the measured response relative to a control, in per cent. High values mean a strong effect, low ones a weak effect.

Structures are written as SMILES. Like-named read-outs stand apart in the source and are kept apart here.

One data set relates to Meloidogyne incognita. Description: Critical Concentration Test/Nematodes. The class given is in vivo. As to conditions: 20 ppm active compound in soil; after four weeks; lettuce roots (root galls). The protocol:
Critical Concentration Test/Nematodes
Solvent: 4 parts by weight of acetone
(§1) Emulsifier: 1 part by weight of alkylaryl polyglycol ether
To produce a suitable preparation of active compound, 1 part by weight of active compound is mixed with the stated amount of solvent, the stated amount of emulsifier is added and the concentrate is diluted with water to the desired concentration.
The active compound preparation is intimately mixed with soil which is heavily infested with the test nematodes. The active compound concentration in the preparation is immaterial, only the amount of active compound per unit volume of soil, which is given in ppm (=mg/l), matters. The treated soil is transferred into pots, lettuce seeds are sown, and the pots are kept at a greenhouse temperature of 25° C.
After four weeks, the lettuce roots are checked for infestation with nematodes (root galls) and the efficacy of the active compound in % is determined. The efficacy is 100% when infestation is avoided completely and 0% when the infestation level is just as high as in the control plants in untreated, but equally infested, soil.

Data set [1] can be described thus: log p: n-octanol/water partition coefficient determined by reverse phase HPLC analysis using H2O/CH3CN. The class given is physicochemical. The source says:
*log p: logarithm to base ten of the noctanol/water partition coefficient
determined by reverse phase HPLC analysis using H2 O/CH3 CN.

Data set [2] deals with mustard beetle larvae (Phaedon cochleariae). Kind of data set: Phaedon Larvae Test. The class given is in vivo. The settings on record: 168 h, 0.1% active compound, after 7 days, dipped cabbage leaves, read-out: kill. On the procedure:
(§2) Solvent: 7 parts by weight of dimethylformamide
as §1
(§3) To produce a suitable preparation of active compound, 1 part by weight of active compound is mixed with the stated amount of solvent and the stated amount of emulsifier, and the concentrate is diluted with water to the desired concentration.
Cabbage leaves (Brassica oleracea) are treated by being dipped into the active compound preparation of the desired concentration and are populated with mustard beetle larvae (Phaedon cochleariae) while the leaves are still moist.
After the desired period of time, the kill in % is determined. 100% means that all the beetle larvae have been killed, 0% means that none of the beetle larvae have been killed.

The subject of data set [3] is all larval stages of Lucilia cuprina (OP resistent). Kind of data set: Test with Fly Larvae/Development-Inhibitory Action. The class given is in vivo. The settings on record: 1000 ppm active compound, on horse meat, larvicidal effect after 48 h. On the procedure: Test with Fly Larvae/Development-Inhibitory Action
all larval stages of Lucilia cuprina (OP resistent)
[pupae and adults (without contact with the active
Solvent: 35 parts by weight of ethylene glycol monomethyl ether
35 parts by weight of nonylphenol polyglycol ether
To produce a suitable preparation, 3 parts by weight of the active compound are mixed with 7 parts by weight of the abovementioned solvent-emulsifier mixture, and the resulting emulsion concentrate is diluted with water to the concentration desired in each case.
For each concentration, 30 to 50 larvae are introduced into a test tube which contains horse meat (1 cm^3). 500 μl of the dilution to be tested are pipetted onto this horse meat. The test tubes are placed in plastic beakers whose bottom is covered with sea sand, and kept in an air-conditioned room (26° C.±1.5° C., 70%±10% relative humidity). The activity is examined (larvicidal action) after 24 hours and 48 hours. After emergence of the larvae (about 72 h), the test tubes are removed and perforated plastic lids are fitted onto the beakers. After 1.5 times the development time (hatching of control flies), the hatched flies and the pupae/cocoons are counted.
The activity criterion is the incidence of death in the treated larvae after 48 h (larvicidal effect), or the inhibition of hatching of adults from pupae or the inhibition of pupae formation. The criterion for the in vitro activity of a substance is the inhibition of the development of the […], or a development standstill before the adult stage. 100% larvicidal action means that all the larvae have been killed after 48 hours. 100% development-inhibitory action means that no adult flies have hatched.

For data set [4], the system named is caterpillars of the diamond back moth (Plutella xylostella). Kind of data set: Plutella Test. The class given is in vivo. As to conditions: 168 h, 0.1% active compound, after 7 days, dipped cabbage leaves, read-out: kill. The protocol: as §2, §1, §3
Cabbage leaves (Brassica oleracea) are treated by being dipped into the active compound preparation of the desired concentration and are populated with caterpillars of the diamond back moth (Plutella xylostella) while the leaves are still moist.
(§4) After the desired period of time, the kill in % is determined. 100% means that all the caterpillars have been killed, 0% means that none of the caterpillars have been killed.

The subject of data set [5] is caterpillars of the owlet moth Spodoptera frugiperda. Description: Spodoptera Test. The class given is in vivo. As to conditions: 168 h, 0.1% active compound, after 7 days, dipped cabbage leaves, read-out: kill. On the procedure:
as §2, §1, §3
Cabbage leaves (Brassica oleracea) are treated by being dipped into the active compound preparation of the desired concentration and are populated with caterpillars of the owlet moth Spodoptera frugiperda) while the leaves are still moist.
as §4

Data set [6] concerns larvae of the green rice leaf hopper (Nephotettix cincticeps). Kind of data set: Nephotettix Test. In kind it is in vivo. The settings on record: 144 h, read-out: kill. The protocol:
as §2, §1, §3
Rice seedlings (Oryzae sativa) are treated by being dipped into the active compound preparation of the desired concentration and are populated with larvae of the green rice leaf hopper (Nephotettix cincticeps) while the seedlings are still moist.
After the desired period of time, the kill in % is determined. 100% means that all the leaf hoppers have been killed; 0% means that none of the leaf hoppers have been killed.

Data set [7] relates to black bean aphid (Aphis fabae). Description: Myzus Test (Duration of Activity after Spraying). In kind it is in vivo. As to conditions: 0.1% active compound, dipped bean shoots, time not stated, read-out: kill. The protocol:
Myzus Test (Duration of Activity after Spraying)
as §2, §1, §3
Bean shoots (Vicia faba) which are heavily infested by the black bean aphid (Aphis fabae) are treated by being dipped into the active compound preparation of the desired concentration.
After the desired period of time, the kill in % is determined. 100% means that all aphids have been killed, 0% means that none of the aphids have been killed.

The subject of data set [8] is Boophilus Microplus Resistent/SP-Resistent Parkhurst Strain. Kind of data set: Test with Boophilus Microplus Resistent/SP-Resistent Parkhurst Strain. The settings on record: 200 μg/animal; injected into the abdomen; adult females which have sucked themselves full. In kind it is in vivo. The protocol: Test with Boophilus Microplus Resistent/SP-Resistent Parkhurst Strain
Adult females which have sucked themselves full […]
The test is carried out in 5 replications. I μl of the solutions is injected into the abdomen, and the animals are transferred into dishes and kept in an air-conditioned room. The activity is determined via the inhibition of oviposition. 100% means that no tick has deposited eggs.

In the case of `FC(F)=C(F)Cc1nnc(-c2cccs2)o1` [Example 10], the efficacy with Meloidogyne incognita came out at 100%. The chromatographic logP in data set [1] (pH 7.5) was 2.19.

With `FC(F)=C(F)Cc1nc(-c2ccccc2)no1` [Example 7], the mortality at 0.1 % strength is 100% in data set [2], not below 90% in [4] and not below 85% in [5]. Besides, in [3], testing at 1000 ppm gave an inhibition of 100%. In [1] (pH 2), this molecule showed a chromatographic logP of 3.2.

Take `FC(F)=C(F)Cc1nnc(-c2ccc(Cl)cc2)o1` [Example 2, 2-(4-chlorophenyl)-5-(2,3,3-trifluoroprop-2-enyl)-1,3-4-oxadiazole]: the mortality at 0.1 % strength in data set [6] was 100%; in [2] it was 100%; in [4], not below 90%; in data set [7] it was 80%.

`FC(F)=C(F)Cc1nnc(-c2ccco2)o1` [Example 9] had a chromatographic logP in data set [1] (pH 7.5) of 1.89.

Regarding `COc1ccc(-c2nnc(CC(F)=C(F)F)o2)cc1` [Example 8], the mortality at 0.1 % strength in data set [4] is not below 90%. Moreover, the chromatographic logP in [1] (pH 7.5) was found to be 2.46.

As for `FC(F)=C(F)Cc1nc(CCl)no1` [Example 4], in data set [1] (pH not stated), the chromatographic logP was 2.08.

The molecule `FC(F)=C(F)Cc1nc(-c2ccccc2Cl)no1` [Example 5] showed an inhibition at 1000 ppm in data set [3] of 100%. Also, the mortality at 0.1 % strength in [4] was not below 90%. Besides, the chromatographic logP in data set [1] (pH 2) worked out at 3.3.

Regarding `FC(F)=C(F)Cc1nc(-c2cc(Cl)cc(Cl)c2)no1` [Example 6], the chromatographic logP in data set [1] (pH 2) turned out to be 4.72.

`Cc1ccc(-c2noc(CC(F)=C(F)F)n2)cc1` [Example 1, 3-(4-methylphenyl)-5-(2,3,3-trifluoroprop-2-enyl)-1,2,4-oxadiazole]: the mortality at 0.1 % strength was 100% in [6]; 100% in data set [2]; not below 90% in data set [4]; 90% in data set [7]; not below 85% in data set [5]. Also, in data set [8], the “activity (inhibition of oviposition)” value was 100%.

Take `FC(F)=C(F)Cc1nc(-c2c(Cl)cccc2Cl)no1` [Example 3]: the mortality at 0.1 % strength in data set [6] (0.1% active compound, after 6 days, dipped rice seedlings) is 100%; in data set [4], not below 90%; in data set [5] it was not below 85%. In addition, the inhibition at 1000 ppm in data set [3] was 100%. In data set [1] (pH 2), this molecule returned a chromatographic logP of 3.44.
